For 36 molecules, IC50 results are on record in patent US9902696B2, “1,4-substituted piperidine derivatives” (Cephalon, Inc., priority 2015, dated 2018).

The structures appear in SMILES notation. Counter-ions that a name gives are not always drawn.

The assay deals with T1, recombinant human baculovirus-expressed GST-tagged FASN (Homo sapiens, UniProt P49327).
T1 construct: GST
T1 sequence (P49327 whole entry): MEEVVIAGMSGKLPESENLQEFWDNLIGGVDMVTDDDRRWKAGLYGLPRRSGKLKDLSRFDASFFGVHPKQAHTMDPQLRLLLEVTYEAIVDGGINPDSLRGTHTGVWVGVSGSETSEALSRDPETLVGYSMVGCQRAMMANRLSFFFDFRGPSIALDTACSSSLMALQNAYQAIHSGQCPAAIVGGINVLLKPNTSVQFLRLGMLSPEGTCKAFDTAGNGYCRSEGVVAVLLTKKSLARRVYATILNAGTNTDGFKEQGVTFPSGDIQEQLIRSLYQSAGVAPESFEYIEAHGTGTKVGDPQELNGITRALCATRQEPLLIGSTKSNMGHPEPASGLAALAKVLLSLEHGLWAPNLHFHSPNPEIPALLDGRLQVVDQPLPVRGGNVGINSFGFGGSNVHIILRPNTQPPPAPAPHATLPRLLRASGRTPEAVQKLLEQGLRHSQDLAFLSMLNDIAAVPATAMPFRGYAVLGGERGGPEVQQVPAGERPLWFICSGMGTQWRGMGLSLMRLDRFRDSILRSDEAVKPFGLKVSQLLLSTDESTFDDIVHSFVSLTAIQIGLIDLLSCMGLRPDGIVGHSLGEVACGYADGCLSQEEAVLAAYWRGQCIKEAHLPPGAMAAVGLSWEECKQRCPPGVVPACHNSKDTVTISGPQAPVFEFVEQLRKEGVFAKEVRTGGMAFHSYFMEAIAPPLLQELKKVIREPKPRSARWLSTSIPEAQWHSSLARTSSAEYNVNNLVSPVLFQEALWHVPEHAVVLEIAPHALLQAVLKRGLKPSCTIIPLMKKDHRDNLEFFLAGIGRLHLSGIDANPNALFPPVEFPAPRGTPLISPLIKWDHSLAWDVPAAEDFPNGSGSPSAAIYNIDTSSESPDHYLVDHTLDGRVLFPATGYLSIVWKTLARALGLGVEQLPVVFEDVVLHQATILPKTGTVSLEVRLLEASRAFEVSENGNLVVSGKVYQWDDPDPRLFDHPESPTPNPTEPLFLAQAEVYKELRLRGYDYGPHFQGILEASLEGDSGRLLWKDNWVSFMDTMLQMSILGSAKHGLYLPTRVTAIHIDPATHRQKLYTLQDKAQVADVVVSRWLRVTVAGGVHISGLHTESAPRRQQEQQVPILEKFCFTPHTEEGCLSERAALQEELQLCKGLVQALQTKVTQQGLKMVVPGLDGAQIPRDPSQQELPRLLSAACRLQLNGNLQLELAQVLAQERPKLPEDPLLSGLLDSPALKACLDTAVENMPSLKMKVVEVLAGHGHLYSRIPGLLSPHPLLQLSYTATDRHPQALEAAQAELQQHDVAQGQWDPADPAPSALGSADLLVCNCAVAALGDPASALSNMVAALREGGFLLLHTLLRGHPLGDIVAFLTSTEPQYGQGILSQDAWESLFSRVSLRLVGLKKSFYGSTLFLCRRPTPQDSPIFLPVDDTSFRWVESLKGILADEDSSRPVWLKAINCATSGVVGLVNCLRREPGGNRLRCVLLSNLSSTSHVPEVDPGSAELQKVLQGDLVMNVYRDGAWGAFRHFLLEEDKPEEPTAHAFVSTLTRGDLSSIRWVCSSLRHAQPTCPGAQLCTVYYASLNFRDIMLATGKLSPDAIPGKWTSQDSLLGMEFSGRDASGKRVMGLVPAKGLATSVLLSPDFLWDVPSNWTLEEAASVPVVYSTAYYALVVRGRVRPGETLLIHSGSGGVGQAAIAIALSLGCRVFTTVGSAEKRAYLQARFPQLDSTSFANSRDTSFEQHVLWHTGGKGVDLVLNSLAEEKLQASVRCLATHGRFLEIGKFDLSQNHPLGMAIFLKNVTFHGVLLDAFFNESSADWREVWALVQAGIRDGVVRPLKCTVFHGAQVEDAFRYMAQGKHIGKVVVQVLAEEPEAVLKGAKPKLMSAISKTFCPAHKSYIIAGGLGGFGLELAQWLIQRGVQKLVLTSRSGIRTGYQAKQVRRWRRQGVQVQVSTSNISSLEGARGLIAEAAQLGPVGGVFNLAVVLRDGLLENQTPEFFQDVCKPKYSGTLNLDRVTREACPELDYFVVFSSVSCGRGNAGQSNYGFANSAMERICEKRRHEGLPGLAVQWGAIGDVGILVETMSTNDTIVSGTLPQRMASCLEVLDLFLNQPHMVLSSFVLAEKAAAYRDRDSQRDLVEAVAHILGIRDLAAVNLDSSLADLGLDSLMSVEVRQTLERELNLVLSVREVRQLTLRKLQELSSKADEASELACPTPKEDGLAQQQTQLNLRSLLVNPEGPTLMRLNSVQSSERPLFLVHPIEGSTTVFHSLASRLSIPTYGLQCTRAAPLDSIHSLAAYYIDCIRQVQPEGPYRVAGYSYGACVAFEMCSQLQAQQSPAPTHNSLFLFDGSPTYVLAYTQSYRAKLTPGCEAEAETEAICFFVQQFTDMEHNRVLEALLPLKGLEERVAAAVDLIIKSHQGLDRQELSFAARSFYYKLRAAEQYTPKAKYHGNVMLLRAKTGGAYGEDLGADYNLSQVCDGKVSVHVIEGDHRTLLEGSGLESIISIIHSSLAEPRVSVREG
The experiment in a line: FASN enzyme activity assay, fluorescence-based detection of CoA with CPM. Format: biochemical. Conditions: 5 nM FASN, 150 μM NADPH, 10 μM acetyl-CoA, 25 μM malonyl-CoA, 90 minutes incubation; read-out: IC50 data for Compounds of Formulae I-V/V(a): Activity. The essentials: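 CoA product reacted with thiol-reactive CPM (diluted to 50 μM in 70% ethanol), read at 390/530 nm after 30 min. Preceding reaction: 90 min, 5 nM recombinant GST-FASN, 150 μM NADPH, 10 μM acetyl-CoA, 25 μM malonyl-CoA, pH 7.5 HEPES, 0.5% DMSO. IC50s fitted by nonlinear sigmoidal regression.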
For the molecule `COc1nccc2cc(-c3ccc(OC4CCN(C(=O)C5CC5)CC4)cc3)ccc12` [Example 435, Cyclopropyl-{4-[4-(1-methoxyisoquinolin-6-yl)-phenoxy]-piperidin-1-yl}-methanone], the IC50 lay within 100 to 999 nM.

Consider `Nc1cc2cc(-c3ccc(OC4CCN(C(=O)[C@H]5CCCO5)CC4)cc3)ccc2cn1` [Example 436, {4-[4-(3-Aminoisoquinolin-6-yl)-phenoxy]-piperidin-1-yl}-(R)-tetrahydro-furan-2-yl-methanone], for which the IC50 lay within 1 to 99 nM.

Take `Cc1cc2cc(-c3ccc(OC4CCN(C(=O)[C@H]5CCCO5)CC4)cc3)ccc2cn1` [Example 437, {4-[4-(3-Methylisoquinolin-6-yl)-phenoxy]-piperidin-1-yl}-(R)-tetrahydro-furan-2-yl-methanone]: the IC50 was 1 to 99 nM.

Turning to `CCc1nccc2cc(-c3ccc(OC4CCN(C(=O)[C@H]5CCCO5)CC4)cc3)ccc12` [Example 438, {4-[4-(1-Ethylisoquinolin-6-yl)-phenoxy]-piperidin-1-yl}-(R)-tetrahydro-furan-2-yl-methanone, HCl], the IC50 is 1 to 99 nM.

Consider `CCC(=O)N1CCC(Oc2ccc(-c3ccc4c(C5CC5)nccc4c3)cc2)CC1` [Example 439, 1-{4-[4-(1-Cyclopropyl-isoquinolin-6-yl)-phenoxy]-piperidin-1-yl}-propan-1-one], for which the IC50 was in the range of 1000 to 10000 nM.

For the molecule `O=C([C@H]1CCCO1)N1CCC(Oc2ccc(-c3ccc4c(C5CC5)nccc4c3)cc2)CC1` [Example 440, {4-[4-(1-Cyclopropylisoquinolin-6-yl)-phenoxy]-piperidin-1-yl}-(R)-tetrahydrofuran-2-yl-methanone], the IC50 lay within 1 to 99 nM.

As to `CCC(=O)N1CCC(Oc2ccc(-c3cnc4cc(OC)c(C)cc4c3)cc2)CC1` [Example 441, 1-{4-[4-(7-Methoxy-6-methylquinolin-3-yl)-phenoxy]-piperidin-1-yl}-propan-1-one], the IC50 was 1000 to 10000 nM.

As for `COc1cc2ncc(-c3ccc(OC4CCN(C(=O)C5CC5)CC4)cc3)cc2cc1C` [Example 442, Cyclopropyl-{4-[4-(7-methoxy-6-methylquinolin-3-yl)-phenoxy]-piperidin-1-yl}-methanone], the IC50 lay within 1000 to 10000 nM.

On to `COc1cc2ncc(-c3ccc(OC4CCN(C(=O)[C@H]5CCCO5)CC4)cc3)cc2cc1C` [Example 443, {4-[4-(7-Methoxy-6-methylquinolin-3-yl)-phenoxy]-piperidin-1-yl}-(R)-tetrahydrofuran-2-yl-methanone], for which the IC50 was 1000 to 10000 nM.

Regarding `CCC(=O)N1CCC(Oc2ccc(-c3cnc4cc(OC)c(F)cc4c3)cc2)CC1` [Example 444, 1-{4-[4-(6-Fluoro-7-methoxyquinolin-3-yl)-phenoxy]-piperidin-1-yl}-propan-1-one], the IC50 fell in the range of 1000 to 10000 nM.

In the case of `COc1cc2ncc(-c3ccc(OC4CCN(C(=O)C5CC5)CC4)cc3)cc2cc1F` [Example 445, Cyclopropyl-{4-[4-(6-fluoro-7-methoxyquinolin-3-yl)-phenoxy]-piperidin-1-yl}-methanone], the IC50 was in the range of 1000 to 10000 nM.

Regarding `COc1cc2ncc(-c3ccc(OC4CCN(C(=O)[C@H]5CCCO5)CC4)cc3)cc2cc1F` [Example 446, {4-[4-(6-Fluoro-7-methoxyquinolin-3-yl)-phenoxy]-piperidin-1-yl}-(R)-tetrahydrofuran-2-yl-methanone], the IC50 was 1000 to 10000 nM.

Turning to `CCC(=O)N1CCC(Oc2ccc(-c3cnc4cc(OC)c(Cl)cc4c3)cc2)CC1` [Example 447, 1-{4-[4-(6-Chloro-7-methoxyquinolin-3-yl)-phenoxy]-piperidin-1-yl}-propan-1-one], the IC50 fell in the range of 1000 to 10000 nM.

As for `COc1cc2ncc(-c3ccc(OC4CCN(C(=O)C5CC5)CC4)cc3)cc2cc1Cl` [Example 448, {4-[4-(6-Chloro-7-methoxyquinolin-3-yl)-phenoxy]-piperidin-1-yl}-cyclopropylmethanone], the IC50 was 1000 to 10000 nM.

`COc1cc2ncc(-c3ccc(OC4CCN(C(=O)[C@H]5CCCO5)CC4)cc3)cc2cc1Cl` [Example 449, {4-[4-(6-Chloro-7-methoxyquinolin-3-yl)-phenoxy]-piperidin-1-yl}-(R)-tetrahydrofuran-2-yl-methanone]: the IC50 was in the range of 1000 to 10000 nM.

For `COc1ccc2ncc(-c3ccc(OC4CCN(C(=O)[C@H]5CCCO5)CC4)cc3)cc2c1` [Example 450, {4-[4-(6-Methoxyquinolin-3-yl)-phenoxy]-piperidin-1-yl}-(R)-tetrahydro-furan-2-yl-methanone, HCl], the IC50 was in the range of 1 to 99 nM.

As to `CC(C)Oc1cc2cc(-c3ccc(OC4CCN(C(=O)[C@H]5CCCO5)CC4)cc3)ccc2cn1` [Example 451, {4-[4-(3-Isopropoxyisoquinolin-6-yl)-phenoxy]-piperidin-1-yl}-(R)-tetrahydrofuran-2-yl-methanone], the IC50 is 1 to 99 nM.

`O=C([C@H]1CCCO1)N1CCC(Oc2ccc(-c3ccc4c(N5CCOCC5)nccc4c3)cc2)CC1` [Example 452, {4-[4-(1-Morpholin-4-yl-isoquinolin-6-yl)-phenoxy]-piperidin-1-yl}-(R)-tetrahydrofuran-2-yl-methanone]: the IC50 is 1 to 99 nM.

Consider `CN(C)c1nccc2cc(-c3ccc(OC4CCN(C(=O)[C@H]5CCCO5)CC4)cc3)ccc12` [Example 453, {4-[4-(1-Dimethylaminoisoquinolin-6-yl)-phenoxy]-piperidin-1-yl}-(R)-tetrahyrofuran-2-yl methananone, HCl], for which the IC50 was 100 to 999 nM.

For `Nc1nccc2cc(-c3ccc(OC4CCN(C(=O)[C@H]5CCCO5)CC4)cc3)ccc12` [Example 454, {4-[4-(1-Aminoisoquinolin-6-yl)-phenoxy]-piperidin-1-yl}-(R)-tetrahydro-furan-2-yl-methanone], the IC50 is 1 to 99 nM.

As for `CN1CCN(c2nccc3cc(-c4ccc(OC5CCN(C(=O)[C@H]6CCCO6)CC5)cc4)ccc23)CC1` [Example 455], the IC50 is 1000 to 10000 nM.

With `CNc1nccc2cc(-c3ccc(OC4CCN(C(=O)[C@H]5CCCO5)CC4)cc3)ccc12` [Example 456, {4-[4-(1-Methylaminoisoquinolin-6-yl)-phenoxy]-piperidin-1-yl}-(R)-tetrahydrofuran-2-yl-methanone], the IC50 lay in the range of 1 to 99 nM.

Regarding `Cc1cncc2cc(-c3ccc(OC4CCN(C(=O)[C@H]5CCCO5)CC4)cc3)ccc12` [Example 459, {4-[4-(4-Methylisoquinolin-6-yl)-phenoxy]-piperidin-1-yl}-(R)-tetrahydrofuran-2-yl-methanone, HCl], the IC50 fell in the range of 1 to 99 nM.

Take `CCC(=O)N1CCC(Oc2ccc(-c3cnc4cccc(C)c4c3)cc2)CC1` [Example 460, 1-{4-[4-(5-Methylquinolin-3-yl)-phenoxy]-piperidin-1-yl}-propan-1-one, HCl]: the IC50 was 100 to 999 nM.

For the molecule `Cc1cccc2ncc(-c3ccc(OC4CCN(C(=O)C5CC5)CC4)cc3)cc12` [Example 461, Cyclopropyl-{4-[4-(5-methyl-quinolin-3-yl)-phenoxy]-piperidin-1-yl}-methanone, HCl], the IC50 fell in the range of 100 to 999 nM.

Consider `Cc1cccc2ncc(-c3ccc(OC4CCN(C(=O)[C@H]5CCCO5)CC4)cc3)cc12` [Example 462, {4-[4-(5-Methylquinolin-3-yl)-phenoxy]-piperidin-1-yl}-(R)-tetrahydro-furan-2-yl-methanone, HCl], for which the IC50 is 1 to 99 nM.

`CCC(=O)N1CCC(Oc2ccc(-c3cnc4cccc(OC)c4c3)cc2)CC1` [Example 463, 1-{4-[4-(5-Methoxyquinolin-3-yl)-phenoxy]-piperidin-1-yl}-propan-1-one, HCl]: the IC50 is 1000 to 10000 nM.

With `COc1cccc2ncc(-c3ccc(OC4CCN(C(=O)C5CC5)CC4)cc3)cc12` [Example 464, Cyclopropyl-{4-[4-(5-methoxyquinolin-3-yl)-phenoxy]-piperidin-1-yl}-methanone], the IC50 was 1000 to 10000 nM.

With `COc1cccc2ncc(-c3ccc(OC4CCN(C(=O)[C@H]5CCCO5)CC4)cc3)cc12` [Example 465, {4-[4-(5-Methoxyquinolin-3-yl)-phenoxy]-piperidin-1-yl}-(R)-tetrahydro-furan-2-yl-methanone, HCl], the IC50 was in the range of 100 to 999 nM.

On to `O=C(C1CC1)N1CCC(Oc2ccc(-c3ccc4cnccc4c3)cc2)CC1` [Example 466, Cyclopropyl-[4-(4-isoquinolin-6-yl-phenoxy)-piperidin-1-yl]-methanone], for which the IC50 lay in the range of 1 to 99 nM.

For `O=C([C@H]1CCCO1)N1CCC(Oc2ccc(-c3ccc4cnccc4c3)cc2)CC1` [Example 467, [4-[4-(6-Isoquinolyl)phenoxy]-1-piperidyl]-[(2R)-tetrahydrofuran-2-yl]-methanone HCl], the IC50 lay within 1 to 99 nM.

Take `Cc1c(-c2ccc(OC3CCN(C(=O)[C@H]4CCCO4)CC3)cc2)ccc2cnccc12` [Example 468, {4-[4-(5-Methylisoquinolin-6-yl)-phenoxy]-piperidin-1-yl}-(R)-tetrahydro-furan-2-yl-methanone, HCl]: the IC50 lay within 1 to 99 nM.

As to `CCC(=O)N1CCC(Oc2ccc(-c3ccc4c(C)ncc(C)c4c3)cc2)CC1` [Example 469, 1-[4-[4-(1,4-Dimethyl-6-isoquinolyl)phenoxy]-1-piperidyl]propan-1-one, HCl], the IC50 lay within 100 to 999 nM.

In the case of `Cc1cnc(C)c2ccc(-c3ccc(OC4CCN(C(=O)C5CC5)CC4)cc3)cc12` [Example 470, Cyclopropyl-[4-[4-(1,4-dimethyl-6-isoquinolyl)phenoxy]-1-piperidyl]methanone, HCl], the IC50 lay within 100 to 999 nM.

Regarding `Cc1cnc(C)c2ccc(-c3ccc(OC4CCN(C(=O)[C@H]5CCCO5)CC4)cc3)cc12` [Example 471, [4-[4-(1,4-Dimethyl-6-isoquinolyl)phenoxy]-1-piperidyl]-[(2R)-tetrahydrofuran-2-yl]methanone, HCl], the IC50 lay in the range of 1 to 99 nM.

On to `CCC(=O)N1CCC(Oc2ccc(-c3ccc4c(C)nccc4c3C)cc2)CC1` [Example 472, 1-[4-[4-(1,5-Dimethyl-6-isoquinolyl)phenoxy]-1-piperidyl]propan-1-one HCl], for which the IC50 lay in the range of 100 to 999 nM.
